Data from patent US11780893B2, “Kv1.3 blockers” (Zealand Pharma A/S, priority 2019, dated 2023).
Like-named read-outs stand apart in the source and are kept apart here. Bridge positions count the residues as written; N and C are the ends. Square brackets hold non-standard residues; d marks the D form. Peptide text beside a SMILES is read from it. Phe(4-NO2) = N[C@@H](Cc1ccc([N+](=O)[O-])cc1)C(=O)O; hLys = NCCCCC[C@H](N)C(=O)O; Nle = CCCC[C@H](N)C(=O)O

Tests used:
Rat whole blood = Rat whole blood (Rattus norvegicus, UniProt P15384)
[1] = target: T1, human Kv1.3 voltage-gated K+ channel (Homo sapiens, UniProt P22001); assay: cell-based; conditions: inhibition of thallium flux, CHO-DUKX cells with human Kv1.3; read-out: IC50
T1 construct: host or cells: CHO-DUKX

[2] = inhibition of IL-17A release, thapsigargin, 24 Hr, at least 2 replicates

Rat whole blood, sequence (P15384 whole entry): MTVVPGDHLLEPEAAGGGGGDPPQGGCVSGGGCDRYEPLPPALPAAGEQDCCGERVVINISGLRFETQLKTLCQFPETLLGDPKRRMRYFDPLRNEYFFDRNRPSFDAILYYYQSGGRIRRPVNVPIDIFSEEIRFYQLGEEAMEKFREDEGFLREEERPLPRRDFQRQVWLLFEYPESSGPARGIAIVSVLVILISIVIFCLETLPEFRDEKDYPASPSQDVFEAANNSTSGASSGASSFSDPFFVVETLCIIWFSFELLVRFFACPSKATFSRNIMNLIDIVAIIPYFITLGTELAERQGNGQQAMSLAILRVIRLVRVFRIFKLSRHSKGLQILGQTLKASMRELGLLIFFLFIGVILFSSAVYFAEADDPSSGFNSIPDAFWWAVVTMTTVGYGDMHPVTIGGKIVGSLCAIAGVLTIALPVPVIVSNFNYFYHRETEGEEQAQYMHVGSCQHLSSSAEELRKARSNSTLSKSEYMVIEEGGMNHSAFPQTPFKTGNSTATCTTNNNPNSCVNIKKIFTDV
T1 sequence (P22001 whole entry): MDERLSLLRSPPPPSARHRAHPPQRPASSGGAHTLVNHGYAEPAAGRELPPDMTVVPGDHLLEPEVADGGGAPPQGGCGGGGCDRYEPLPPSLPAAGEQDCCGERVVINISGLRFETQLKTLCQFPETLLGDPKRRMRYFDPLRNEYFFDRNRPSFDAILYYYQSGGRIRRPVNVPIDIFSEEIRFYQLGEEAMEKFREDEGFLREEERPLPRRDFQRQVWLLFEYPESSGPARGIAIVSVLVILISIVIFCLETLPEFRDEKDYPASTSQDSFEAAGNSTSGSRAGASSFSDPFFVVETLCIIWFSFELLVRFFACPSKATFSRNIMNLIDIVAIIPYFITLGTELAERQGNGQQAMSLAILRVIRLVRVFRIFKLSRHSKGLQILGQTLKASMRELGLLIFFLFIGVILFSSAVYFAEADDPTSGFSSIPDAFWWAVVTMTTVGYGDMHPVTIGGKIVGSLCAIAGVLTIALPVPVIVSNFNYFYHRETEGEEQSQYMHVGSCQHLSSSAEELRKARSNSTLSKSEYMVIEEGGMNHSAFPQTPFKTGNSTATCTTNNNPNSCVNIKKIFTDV

SMILES	IC50 (Rat whole blood) [nM]	IC50 (Rat whole blood; [2]) [nM]	IC50 [1] [nM]
CCCC[C@H](NC(=O)[C@H](CC(=O)O)NC(=O)[C@H](CCCC)NC(=O)[C@@H](N)CO)C(=O)N[C@@H](CCCNC(=N)N)C(=O)N[C@H]1CSSC[C@@H]2NC(=O)[C@H](CCCCN)NC(=O)CNC(=O)[C@H](Cc3ccccc3)NC(=O)[C@H]([C@@H](C)CC)NC(=O)[C@H](CO)NC(=O)CNC(=O)[C@H]([C@@H](C)CC)NC(=O)[C@H](C)NC(=O)[C@H](CCCCN)NC(=O)[C@H](CC(C)C)NC(=O)[C@@H]3CSSC[C@@H](C(=O)N[C@@H](Cc4ccc(O)cc4)C(=O)N4CCC[C@H]4C(=O)N[C@@H](CCCNC(=N)N)C(N)=O)NC(=O)[C@H](CCCNC(=N)N)NC(=O)[C@H](CSSC[C@H](NC(=O)[C@H](CCC(=O)O)NC(=O)[C@H](C(C)C)NC(=O)[C@H](CO)NC(=O)[C@H](C)NC(=O)[C@H](CO)NC1=O)C(=O)N[C@@H](CCCCN)C(=O)N[C@@H](CCC(N)=O)C(=O)N[C@@H](CCCCN)C(=O)N3)NC(=O)[C@H](CCCCN)NC(=O)[C@H](CCCCN)NC(=O)[C@H](CC(N)=O)NC(=O)[C@H](CCSC)NC2=O [Compound 75]	≤ 1		
CCCC[C@@H]1NC(=O)[C@@H]2CSSC[C@H](NC(=O)[C@H](CCCNC(=N)N)NC(=O)[C@H](CC(C)C)NC(C)=O)C(=O)N[C@@H](CO)C(=O)N[C@@H](C)C(=O)N[C@@H](CO)C(=O)N[C@@H](C(C)C)C(=O)N[C@@H](CCC(=O)O)C(=O)N[C@H]3CSSC[C@H](NC(=O)[C@H](CCCCN)NC(=O)[C@H](CCCCN)NC(=O)[C@H](CC(N)=O)NC1=O)C(=O)N[C@@H](CCCCN)C(=O)N[C@H](C(=O)N[C@@H](Cc1ccc(O)cc1)C(=O)N1CCC[C@H]1C(=O)N[C@@H](CCCNC(=N)N)C(=O)O)CSSC[C@H](NC(=O)[C@H](CCCCN)NC(=O)[C@H](CCC(N)=O)NC(=O)[C@H](CCCCN)NC3=O)C(=O)N[C@@H](CC(C)C)C(=O)N[C@@H](C)C(=O)N[C@@H](C)C(=O)N[C@@H]([C@@H](C)CC)C(=O)NCC(=O)N[C@@H](CO)C(=O)N[C@@H]([C@@H](C)CC)C(=O)N[C@@H](Cc1ccccc1)C(=O)NCC(=O)N[C@@H](CCCCN)C(=O)N2 [Compound 115] (Ac-LRCSASVECKQKCLAAIGSIFGKC[Nle]NKKCKCYPR-OH; disulfide 3-24, 9-29, 13-31)	≤ 1	0.9	0.31
CCCC[C@H](NC(=O)[C@H](CC(=O)O)NC(=O)[C@H](CCCC)NC(=O)[C@@H](N)CO)C(=O)N[C@@H](CCCNC(=N)N)C(=O)N[C@H]1CSSC[C@@H]2NC(=O)[C@H](CCCCN)NC(=O)CNC(=O)[C@H](Cc3ccccc3)NC(=O)[C@H]([C@@H](C)CC)NC(=O)[C@H](CO)NC(=O)CNC(=O)[C@H]([C@@H](C)CC)NC(=O)[C@H](C)NC(=O)[C@H](CCCCN)NC(=O)[C@H](CC(C)C)NC(=O)[C@@H]3CSSC[C@@H](C(=O)N[C@@H](Cc4ccc([N+](=O)[O-])cc4)C(=O)N4CCC[C@H]4C(=O)N[C@@H](CCCNC(=N)N)C(N)=O)NC(=O)[C@H](CCCCN)NC(=O)[C@H](CSSC[C@H](NC(=O)[C@H](CCC(=O)O)NC(=O)[C@H](C(C)C)NC(=O)[C@H](CO)NC(=O)[C@H](C)NC(=O)[C@H](CO)NC1=O)C(=O)N[C@@H](CCCCN)C(=O)N[C@@H](CCC(N)=O)C(=O)N[C@@H](CCCCN)C(=O)N3)NC(=O)[C@H](CCCCN)NC(=O)[C@H](CCCCN)NC(=O)[C@H](CC(N)=O)NC(=O)[C@H](CCSC)NC2=O [Compound 92] (H-S[Nle]D[Nle]RCSASVECKQKCLKAIGSIFGKCMNKKCKC[Phe(4-NO2)]PR-NH2; disulfide 6-27, 12-32, 16-34)		1.3	0.49
CCCC[C@@H]1NC(=O)[C@@H]2CSSC[C@H](NC(=O)[C@H](CCCNC(=N)N)NC(=O)[C@@H](N)CC(C)C)C(=O)N[C@@H](CO)C(=O)N[C@@H](C)C(=O)N[C@@H](CO)C(=O)N[C@@H](C(C)C)C(=O)N[C@@H](CCC(=O)O)C(=O)N[C@H]3CSSC[C@H](NC(=O)[C@H](CCCCN)NC(=O)[C@H](CCCCN)NC(=O)[C@H](CC(N)=O)NC1=O)C(=O)N[C@@H](CCCCN)C(=O)N[C@H](C(=O)N[C@@H](Cc1ccc(O)cc1)C(=O)N1CCC[C@H]1C(=O)N[C@@H](CCCNC(=N)N)C(=O)O)CSSC[C@H](NC(=O)[C@H](CCCCN)NC(=O)[C@H](CCC(N)=O)NC(=O)[C@H](CCCCN)NC3=O)C(=O)N[C@@H](CC(C)C)C(=O)N[C@@H](CCCCN)C(=O)N[C@@H](C)C(=O)N[C@@H]([C@@H](C)CC)C(=O)NCC(=O)N[C@@H](CO)C(=O)N[C@@H]([C@@H](C)CC)C(=O)N[C@@H](Cc1ccccc1)C(=O)NCC(=O)N[C@@H](CCCCN)C(=O)N2 [Compound 114] (H-LRCSASVECKQKCLKAIGSIFGKC[Nle]NKKCKCYPR-OH; disulfide 3-24, 9-29, 13-31)		2.1	0.39
CCCC[C@H](NC(=O)[C@H](CC(=O)O)NC(=O)[C@H](CCCC)NC(=O)[C@@H](N)CO)C(=O)N[C@@H](CCCNC(=N)N)C(=O)N[C@H]1CSSC[C@@H]2NC(=O)[C@H](CCCCCN)NC(=O)CNC(=O)[C@H](Cc3ccccc3)NC(=O)[C@H]([C@@H](C)CC)NC(=O)[C@H](CO)NC(=O)CNC(=O)[C@H]([C@@H](C)CC)NC(=O)[C@H](C)NC(=O)[C@H](CCCCN)NC(=O)[C@H](CC(C)C)NC(=O)[C@@H]3CSSC[C@@H](C(=O)N[C@@H](Cc4ccc(O)cc4)C(=O)N4CCC[C@H]4C(=O)N[C@@H](CCCNC(=N)N)C(N)=O)NC(=O)[C@H](CCCCN)NC(=O)[C@H](CSSC[C@H](NC(=O)[C@H](CCC(=O)O)NC(=O)[C@H](C(C)C)NC(=O)[C@H](CO)NC(=O)[C@H](C)NC(=O)[C@H](CO)NC1=O)C(=O)N[C@@H](CCCCN)C(=O)N[C@@H](CCC(N)=O)C(=O)N[C@@H](CCCCN)C(=O)N3)NC(=O)[C@H](CCCCN)NC(=O)[C@H](CCCCN)NC(=O)[C@H](CC(N)=O)NC(=O)[C@H](CCSC)NC2=O [Compound 69] (H-S[Nle]D[Nle]RCSASVECKQKCLKAIGSIFG[hLys]CMNKKCKCYPR-NH2; disulfide 6-27, 12-32, 16-34)		2.7	0.58
CCCC[C@H](NC(=O)[C@H](CC(=O)O)NC(=O)[C@H](CCCC)NC(=O)[C@@H](N)CO)C(=O)N[C@@H](CCCNC(=N)N)C(=O)N[C@H]1CSSC[C@@H]2NC(=O)[C@H](CCCCN)NC(=O)CNC(=O)[C@H](Cc3ccccc3)NC(=O)[C@H]([C@@H](C)CC)NC(=O)[C@H](CO)NC(=O)CNC(=O)[C@H]([C@@H](C)CC)NC(=O)[C@H](C)NC(=O)[C@H](CCCCN)NC(=O)[C@H](CC(C)C)NC(=O)[C@@H]3CSSC[C@@H](C(=O)N[C@@H](Cc4ccc(O)cc4)C(=O)N4CCC[C@H]4C(=O)N[C@@H](CCCNC(=N)N)C(N)=O)NC(=O)[C@H](CCCCN)NC(=O)[C@H](CSSC[C@H](NC(=O)[C@H](CCC(=O)O)NC(=O)[C@H](C(C)C)NC(=O)[C@H](CO)NC(=O)[C@H](C)NC(=O)[C@H](CO)NC1=O)C(=O)N[C@@H](C(C)C)C(=O)N[C@@H](CCC(N)=O)C(=O)N[C@@H](CCCCN)C(=O)N3)NC(=O)[C@H](CCCCN)NC(=O)[C@H](CCCCN)NC(=O)[C@H](CC(N)=O)NC(=O)[C@H](CCSC)NC2=O [Compound 72] (H-S[Nle]D[Nle]RCSASVECVQKCLKAIGSIFGKCMNKKCKCYPR-NH2; disulfide 6-27, 12-32, 16-34)	≤ 1	0.47	0.19
CCCC[C@H](NC(=O)[C@@H]1CCCN1)C(=O)N[C@@H](CCC(=O)O)C(=O)N[C@@H](CCCC)C(=O)N[C@@H](CCCNC(=N)N)C(=O)N[C@H]1CSSC[C@@H]2NC(=O)[C@H](CCCCN)NC(=O)CNC(=O)[C@H](Cc3ccccc3)NC(=O)[C@H]([C@@H](C)CC)NC(=O)[C@H](CO)NC(=O)CNC(=O)[C@H]([C@@H](C)CC)NC(=O)[C@H](C)NC(=O)[C@H](C)NC(=O)[C@H](CC(C)C)NC(=O)[C@@H]3CSSC[C@@H](C(=O)N[C@@H](Cc4ccc(O)cc4)C(=O)N4CCC[C@H]4C(=O)N[C@@H](CCCNC(=N)N)C(=O)N[C@@H](Cc4c[nH]cn4)C(=O)O)NC(=O)[C@H](CCCCN)NC(=O)[C@H](CSSC[C@H](NC(=O)[C@H](CCC(=O)O)NC(=O)[C@H](C(C)C)NC(=O)[C@H](CO)NC(=O)[C@H](C)NC(=O)[C@H](CO)NC1=O)C(=O)N[C@@H](CCCCN)C(=O)N[C@@H](CCC(N)=O)C(=O)N[C@@H](CCCCN)C(=O)N3)NC(=O)[C@H](CCCCN)NC(=O)[C@H](CCCCN)NC(=O)[C@H](CC(N)=O)NC(=O)[C@H](CCCC)NC2=O [Compound 125] (H-P[Nle]E[Nle]RCSASVECKQKCLAAIGSIFGKC[Nle]NKKCKCYPRH-OH; disulfide 6-27, 12-32, 16-34)			0.383
CC[C@H](C)[C@@H]1NC(=O)[C@H](CO)NC(=O)CNC(=O)[C@H](C)NC(=O)[C@H](CCCCN)NC(=O)[C@H](CC(C)C)NC(=O)[C@@H]2CSSC[C@@H](C(=O)N[C@@H](Cc3ccc(O)cc3)C(=O)N3CCC[C@H]3C(=O)N[C@@H](CCCNC(=N)N)C(N)=O)NC(=O)[C@H](CCCCN)NC(=O)[C@@H]3CSSC[C@H](NC(=O)[C@H](CCC(=O)O)NC(=O)[C@H](C(C)C)NC(=O)[C@H](CO)NC(=O)[C@H](C)NC(=O)[C@H](CO)NC(=O)[C@@H](NC(=O)[C@H](CCCNC(=N)N)NC(=O)[C@H](CCSC)NC(=O)[C@H](CC(=O)O)NC(=O)[C@H](CCSC)NC(=O)[C@@H](N)CC(N)=O)CSSC[C@H](NC(=O)[C@H](CCCCN)NC(=O)CNC(=O)[C@H](Cc4ccccc4)NC1=O)C(=O)N[C@@H](CCSC)C(=O)N[C@@H](CC(N)=O)C(=O)N[C@@H](CCCCN)C(=O)N[C@@H](CCCCN)C(=O)N3)C(=O)N[C@@H](CCCCN)C(=O)N[C@@H](CCC(N)=O)C(=O)N[C@@H](CCCCN)C(=O)N2 [Compound 61] (H-NMDMRCSASVECKQKCLKAGSIFGKCMNKKCKCYPR-NH2; disulfide 6-26, 12-31, 16-33)			0.4
